# Experimental data taken from PubChem BioAssay AID1963427 (Molecular Pharmacology Branch, DTP, NCI, 2024).
# pIC50: −log10 of the molar value.
# System: 317291-083-R-J1-PDC complex spheroid growth
# Test: Anticancer human tumor 317291-083-R-J1-PDC patient-derived soft tissue sarcoma cell line growth inhibition [Asc]
# Settings: for pIC50: curve of first compound; for viability, T/C: stronger effect = lower value
# Procedure, shortened: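 Stromal components (HUVEC and hMSC) are co-assembled with the cancer cells into multicellular spheroids. Drugs are then added singly or paired, at concentrations falling by half-log increments from a clinically achievable maximum, capped at 10 microM without known Cmax.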
# 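Also: compound exposure lasted seven days after spheroids formed for three days.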
# 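For viability, T/C in this document: 100% = DMSO vehicle control wells.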
structure (smiles),measurement,setting,value
CNC(C)C(=O)NC1CN(S(=O)(=O)c2cccc(S(=O)(=O)N3CCC4CCC(C(=O)NC(c5ccccc5)c5ccccc5)N4C(=O)C(NC(=O)C(C)NC)C3)c2)CCC2CCC(C(=O)NC(c3ccccc3)c3ccccc3)N2C1=O (configuration not stated) + Cc1c(S(C)(=O)=O)c(-c2cc(F)cc(N3CCN(c4ccc(NS(=O)(=O)c5ccc(NC(CCN6CCC(C(=O)OCCCP(=O)(O)O)CC6)CSc6ccccc6)c(S(=O)(=O)C(F)(F)F)c5)cc4)CC3)c2)c(-c2ccc(Cl)cc2)n1C(C)C,pIC50,second compound 0.0316 µM,6.71
same,pIC50,second compound 0.1 µM,6.86
same,pIC50,second compound 0.316 µM,6.75
same,pIC50,second compound 1 µM,7.21
same,pIC50,second compound 3.16 µM,7.08
same,pIC50,second compound 10 µM,6.83
same,"viability, T/C","second compound 0.0316 µM, first compound 0.00316 µM",121%
same,"viability, T/C","second compound 0.0316 µM, first compound 0.01 µM",65.5%
same,"viability, T/C","second compound 0.0316 µM, first compound 0.0316 µM",82.7%
same,"viability, T/C","second compound 0.0316 µM, first compound 0.1 µM",55.4%
same,"viability, T/C","second compound 0.0316 µM, first compound 0.316 µM",53.3%
same,"viability, T/C","second compound 0.0316 µM, first compound 1 µM",32.9%
same,"viability, T/C","second compound 0.1 µM, first compound 0.00316 µM",88.3%
same,"viability, T/C","second compound 0.1 µM, first compound 0.01 µM",80.2%
same,"viability, T/C","second compound 0.1 µM, first compound 0.0316 µM",60.4%
same,"viability, T/C","second compound 0.1 µM, first compound 0.1 µM",62.2%
same,"viability, T/C","second compound 0.1 µM, first compound 0.316 µM",35.1%
same,"viability, T/C","second compound 0.1 µM, first compound 1 µM",25.1%
same,"viability, T/C","second compound 0.316 µM, first compound 0.00316 µM",82.7%
same,"viability, T/C","second compound 0.316 µM, first compound 0.01 µM",67.4%
same,"viability, T/C","second compound 0.316 µM, first compound 0.0316 µM",74.5%
same,"viability, T/C","second compound 0.316 µM, first compound 0.1 µM",60.5%
same,"viability, T/C","second compound 0.316 µM, first compound 0.316 µM",38.8%
same,"viability, T/C","second compound 0.316 µM, first compound 1 µM",23.8%
same,"viability, T/C","second compound 1 µM, first compound 0.00316 µM",70.7%
same,"viability, T/C","second compound 1 µM, first compound 0.01 µM",61.4%
same,"viability, T/C","second compound 1 µM, first compound 0.0316 µM",55%
same,"viability, T/C","second compound 1 µM, first compound 0.1 µM",44.5%
same,"viability, T/C","second compound 1 µM, first compound 0.316 µM",41.3%
same,"viability, T/C","second compound 1 µM, first compound 1 µM",25.3%
same,"viability, T/C","second compound 3.16 µM, first compound 0.00316 µM",81%
same,"viability, T/C","second compound 3.16 µM, first compound 0.01 µM",53.1%
same,"viability, T/C","second compound 3.16 µM, first compound 0.0316 µM",65.1%
same,"viability, T/C","second compound 3.16 µM, first compound 0.1 µM",50.9%
same,"viability, T/C","second compound 3.16 µM, first compound 0.316 µM",36.6%
same,"viability, T/C","second compound 3.16 µM, first compound 1 µM",22.1%
same,"viability, T/C","second compound 10 µM, first compound 0.00316 µM",77.5%
same,"viability, T/C","second compound 10 µM, first compound 0.01 µM",78.6%
same,"viability, T/C","second compound 10 µM, first compound 0.0316 µM",67.1%
same,"viability, T/C","second compound 10 µM, first compound 0.1 µM",60%
same,"viability, T/C","second compound 10 µM, first compound 0.316 µM",34.9%
same,"viability, T/C","second compound 10 µM, first compound 1 µM",24.8%
